Assay results published in patent US7855228B2, “Antibiotics targeting MreB” (The Board of Trustees of the Leland Stamford Junior …, priority 2005, dated 2010).
Converted amounts (≈) assume the structure as drawn. Read-outs that look alike come from different tables or passages of the source. *1 amine or outer side, *2 acyl side, *3 side chain or, on linkers, in order; H or OH if unused. Where a SMILES comes first, the peptide text is derived from it. Bridges are numbered along the chain shown (N, C = ends). [ ]: non-standard residue; d: D form. Trp(2-yl) = O=C([C@H](Cc1c([*:3])[nH]c2ccccc12)N[*:1])[*:2]; Leu(4R-OH,5-OH) = C[C@](O)(CO)C[C@H](N)C(=O)O; cisHyp = O=C(O)[C@@H]1C[C@H](O)CN1

Assays:
[1] = test system: E. coli K-12 strain SH3210; assay: Anucleate cell blue assay; type: cell-based
Protocol: Anucleate cell blue assay. The anucleate cell blue assay was carried out as reported previously. Briefly, E. coli K-12 strain SH3210 (ΔtrpE5 his λ pXX747) was grown in a P medium containing 1% Polypepton and 0.5% NaCl (pH 7). Paper disks (φ 8 mm) each soaked with 20 μl of a sample solution were placed on P medium agar plates (1.5% agar) containing 10^4 cells/ml of SH3210 and 40 μg/ml of 5-bromo-4-chloro-3-indolyl β-D-galactoside. The plates were incubated at 42° C. for 24 h, and the development of a blue color and the growth inhibitory zone around the paper disks were evaluated.
Since 1 had originally been found through screening by an anucleate cell blue assay, the effect of each compound was first examined by this assay.

[2] = test system: S. aureus subsp. aureus NBRC15035; assay: Determination of minimum inhibitory concentration (MIC); type: cell-based, Staphylococcus aureus; conditions: for MIC S. aureus: Example 2; for MIC: Staphylococcus aureus
Protocol: (§1) Determination of minimum inhibitory concentration (MIC). MICs were also determined on Mueller Hinton agar plates (0.2% beef extract, 1.75% acid digest of casein, 0.15% soluble starch, 1.5% agar, pH 7.3).
(§2) Determination of MIC Minimal inhibitory concentrations (MICs) were determined using a standard 2-fold serial dilution format on L agar plates. Ten microliters of stationary culture diluted in 0.85% NaCl to 10^6 cells/ml were spotted on per plate. […] MICs were also determined on Mueller Hinton agar plates (0.2% beef extract, 1.75% acid digest of casein, 0.15% soluble starch, 1.5% agar, pH 7.3).

B. subtilis 168 = assay: as above; type: cell-based, Bacillus subtilis; conditions: for MIC B. subtilis: Example 2
Protocol: as §1, §2

S. typhimurium NBRC13245 = assay: as above; type: cell-based, Salmonella typhimurium; conditions: for MIC: Salmonella enterica, read-out: MIC S. typhimurium
Protocol: as §1, §2

E. coli MG1655 [3] = assay: as above; type: cell-based; conditions: for MIC: Escherichia coli; for MIC E. coli: Example 2
Protocol: as §1, §2

E. coli MG1655 [4] = assay: Microscopic observation of cell shape; type: cell-based; conditions: for Effect on E. coli cell morphology (in words): 3×MIC or 300 μg/ml, 16 hrs
Protocol: Microscopic observation. E. coli K-12 strain MG1655 (F^− λ^−) was grown in Lennox broth containing 1% Polypepton, 0.5% yeast extract, 0.5% NaCl, and 0.1% glucose (pH 7.2). Cells spread on a slide glass were treated with methanol for 5 min and covered with poly-L-lysine. The fixed cells were observed by the differential interference contrast system through an Axioskop 2 microscope (Carl Zeiss Co., Ltd., Oberkochen, Germany). To observe the anucleate cells, cells were stained with a 4′,6-diamidino-2-phenylindole (DAPI) solution (5 μg/ml in saline) and then observed by the fluorescence phase-contrast combined method.
The effect of each compound on E. coli cell morphology was next examined.

P. putida NBRC14164 = assay: Determination of minimum inhibitory concentration (MIC); type: cell-based, Pseudomonas putida; conditions: for MIC P. putida: Example 2; for MIC: Pseudomonas putida
Protocol: as §1, §2

Caulobacter = Caulobacter morphology (DIC images); type: cell-based, Caulobacter crescentus; conditions: drugs that affect eukaryotic actin
Source text: Consistent with previous observations in E. coli (Iwai et al., 2002), A22 caused a dose-dependent alteration of Caulobacter morphology, transforming normal, crescent-shaped cells into rounded, lemon-shaped cells. The progression of cell shape deformation by A22 treatment was qualitatively similar to that caused by mreB depletion, though the A22 effect was more rapid (FIGS. […]). […] For example, A22 could disrupt the localization of new cell wall synthesis but have no effect on the existing cell wall, such that without additional growth and wall synthesis A22's effects cannot be perceived. A dependence on cell growth could also explain why A22's effect on morphology takes several hours to manifest.
Microscopy and Timelapse Imaging. All experiments other than the A22 flow-cell analysis were performed by mounting the samples on 1% agarose pads as described, with the appropriate concentration of A22 added to the agarose. The rates of origin-distal locus segregation were determined by inducing PxyI:lacI:cfp expression with 0.03% xylose for 75 min, isolating swarmer cells, and growing the swarmer cells in M2G liquid medium for 50 min. After 50 min, 10 μg/ml of A22 was added to these liquid cultures, they were mounted onto 1% M2G agarose pads containing 10 μg/ml A22, and a phase and CFP fluorescence image was captured every 2 min for 60 min. The images were analyzed by previously described software to determine the average position and rate of movement of the observed foci.

[5] = NBRC15035, read-out: MIC S. aureus
[6] = Bacillus subtilis, 168, read-out: MIC B. subtilis
[7] = Example 2, methods as in Example 1
[8] = E. coli MG1655 treated at 300 μg/ml (**), 30° C., 16 h
[9] = NBRC14164, read-out: MIC P. putida
[10] = NBRC15035, Example 2, methods as in Example 1, read-out: MIC S. aureus
[11] = NBRC15035, Table 1, NBRC15035, read-out: MIC S. aureus
[12] = Bacillus subtilis, 168, Example 2, methods as in Example 1, read-out: MIC B. subtilis
[13] = Bacillus subtilis, 168, Table 1, B. subtilis 168, read-out: MIC B. subtilis
[14] = MG1655, Example 2, methods as in Example 1, read-out: MIC E. coli
[15] = MG1655, Table 1, E. coli MG1655, read-out: MIC E. coli
[16] = E. coli MG1655 treated at 3×MIC (*), 30° C., 16 h
[17] = NBRC14164, Example 2, methods as in Example 1, read-out: MIC P. putida
[18] = NBRC14164, Table 1, NBRC14164, read-out: MIC P. putida

NC(=S)Nc1ccccc1 [Compound 10, N-phenylthiourea, reference compound] was tested, and the “Growth inhibitory zone and blue zone in the anucleate cell blue assay (in words)” value (“Growth inhibitory zone and blue zone” below) [1] was “neither a growth inhibition nor blue zone”, the “MIC S. aureus” value ([2]; methods as in Example 1) was >100 µg/mL and the MIC [2, 5] was > 100 µg/mL. The MIC (B. subtilis 168; [6]) was > 100 µg/mL, the “MIC B. subtilis” value (B. subtilis 168; methods as in Example 1) was >100 µg/mL and the “MIC S. typhimurium” value (S. typhimurium NBRC13245; [7]) was >100 µg/mL. The MIC (S. typhimurium NBRC13245) was > 100 µg/mL, the MIC (E. coli MG1655 [3]; MG1655, read-out: MIC E. coli) was > 100 µg/mL and the “MIC E. coli” value (E. coli MG1655 [3]; methods as in Example 1) was >100 µg/mL. For the same compound, the Shape (E. coli MG1655 [4]; [8]) was “Rod**”, the Shape (E. coli MG1655 [4]; [7]) was “Rod” and the “MIC P. putida” value (P. putida NBRC14164; methods as in Example 1) was >100 µg/mL. The MIC (P. putida NBRC14164; [9]) was > 100 µg/mL.

In the case of C[C@@H]1NC(=O)[C@H](C[C@@](C)(O)CO)NC(=O)[C@@H]2Cc3c([nH]c4ccccc34)SC[C@H](NC(=O)[C@@H]([C@H](C)O)NC1=O)C(=O)N1C[C@@H](O)C[C@H]1C(=O)N[C@@H](C)C(=O)N2 [phalloidin] (cyclo(A[dT]C[cisHyp]A[Trp(2-yl)][Leu(4R-OH,5-OH)]); thioether 3-6), the “Caulobacter growth rate or morphology” value (Caulobacter) is reported as “failed to perturb growth rate or morphology”.

With CCSC(=N)N [Compound 6, S-ethylisothiourea] the “Growth inhibitory zone and blue zone” value [1] was “neither a growth inhibitory zone nor blue zone”, the “MIC S. aureus” value ([2]; methods as in Example 1) was >100 µg/mL and the MIC [2, 5] was > 100 µg/mL. For the same compound, the MIC (B. subtilis 168; [6]) was > 100 µg/mL, the “MIC B. subtilis” value (B. subtilis 168; methods as in Example 1) was >100 µg/mL and the “MIC S. typhimurium” value (S. typhimurium NBRC13245; [7]) was >100 µg/mL. The MIC (S. typhimurium NBRC13245) was > 100 µg/mL, the MIC (E. coli MG1655 [3]; MG1655, read-out: MIC E. coli) was > 100 µg/mL and the “MIC E. coli” value (E. coli MG1655 [3]; methods as in Example 1) was >100 µg/mL. For the same compound, the Shape (E. coli MG1655 [4]; [8]) was “Rod**”, the Shape (E. coli MG1655 [4]; [7]) was “Rod” and the “MIC P. putida” value (P. putida NBRC14164; methods as in Example 1) was >100 µg/mL. For the same compound, the MIC (P. putida NBRC14164; [9]) was > 100 µg/mL.

In the case of N=C(N)SCc1ccccc1 [Compound 3, S-benzylisothiourea], the “Growth inhibitory zone and blue zone” value [1] is reported as “blue zone just around the paper disk, but only a marginal growth inhibitory zone was detected”, the MIC [2, 10] is reported as > 100 µg/mL and the MIC [2, 11] is reported as > 100 µg/mL. For the same compound, the MIC (B. subtilis 168; [12]) was > 100 µg/mL, the MIC (B. subtilis 168; [13]) was > 100 µg/mL and the MIC (S. typhimurium NBRC13245; [7]) was > 100 µg/mL. The MIC (S. typhimurium NBRC13245; Table 1, NBRC13245) was > 100 µg/mL, the MIC (E. coli MG1655 [3]; [14]) was 100 µg/mL (≈ 602 µM) and the MIC (E. coli MG1655 [3]; [15]) was 100 µg/mL (≈ 602 µM). For the same compound, the “Effect on E. coli cell morphology (in words)” value (E. coli MG1655 [4]; 30° C.) was “induced a spherical cell shape”, the Shape (E. coli MG1655 [4]; [16]) was “Sphere*” and the Shape (E. coli MG1655 [4]; [7]) was “Sphere”. The MIC (P. putida NBRC14164; [17]) was > 100 µg/mL and the MIC (P. putida NBRC14164; [18]) was > 100 µg/mL.

C=C1[C@@H](C)[C@H]2[C@H](Cc3ccccc3)NC(=O)[C@]23[C@H](OC(C)=O)/C=C/[C@@](C)(O)C(=O)[C@@H](C)C/C=C/[C@H]3[C@@H]1O [cytochalasin D] was tested, and the “Caulobacter growth rate or morphology” value (Caulobacter) was “failed to perturb growth rate or morphology”.

For C/C1=C\[C@H](C)C[C@H](C)OC(=O)C[C@H](c2ccc(O)cc2)NC(=O)[C@@H](Cc2c(Br)[nH]c3ccccc23)N(C)C(=O)[C@H](C)NC(=O)[C@@H](C)C1 [jasplakinolide], the “Caulobacter growth rate or morphology” value (Caulobacter) was “failed to perturb growth rate or morphology”.

N=C(N)SCc1ccc(Cl)cc1 [Compound 2, S-(4-chlorobenzyl)isothiourea] was tested, and the “Growth inhibitory zone and blue zone” value [1] was “deep blue zone around a growth inhibitory zone almost comparable to those of 1”, the MIC [2, 10] was > 100 µg/mL and the MIC [2, 11] was > 100 µg/mL. For the same compound, the MIC (B. subtilis 168; [12]) was > 100 µg/mL, the MIC (B. subtilis 168; [13]) was > 100 µg/mL and the MIC (S. typhimurium NBRC13245; [7]) was 3.13 µg/mL (≈ 15.6 µM). The MIC (S. typhimurium NBRC13245; Table 1, NBRC13245) was 3.13 µg/mL (≈ 15.6 µM), the MIC (E. coli MG1655 [3]; [14]) was 3.13 µg/mL (≈ 15.6 µM) and the MIC (E. coli MG1655 [3]; [15]) was 3.13 µg/mL (≈ 15.6 µM). For the same compound, the “Effect on E. coli cell morphology (in words)” value (E. coli MG1655 [4]; 30° C.) was “induced a spherical cell shape”, the Shape (E. coli MG1655 [4]; [16]) was “Sphere*” and the Shape (E. coli MG1655 [4]; [7]) was “Sphere”. The MIC (P. putida NBRC14164; [17]) was > 100 µg/mL and the MIC (P. putida NBRC14164; [18]) was > 100 µg/mL.
